In brackets after ≈: the same amount, converted by molar mass. Where two headings read alike, the source gives them in different places.
Experiments:
C. albicans [1] = test: Growth inhibition of C. albicans during 24 hours exposure; type: cell-based, Candida albicans; details: Candida albicans; 24 hours exposure; Table 3; read-out: Minimal concentration causing 100% growth inhibition
C. albicans [2] = test: Temperature and time dependent degradation of ThD in water solution (LC50 on C. albicans); type: cell-based; details: Candida albicans
Description: (§1) Data on degradation of Thiarubrine D (ThD) expressed as changes of concentration required to inhibit growth of C. albicans in 50% during 24 hrs. exposure (Lc50 24 hrs.).

Aspergillus [3] = test: Anti-Aspergillus activity (summary); type: cell-based; details: Table 14;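 also: Letter grades where Y means active and y means less active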
[4] = Growth inhibition of WEHI-3 during 24 hours exposure; type: cell-based, Mouse; details: mouse, wehi-3 cells; Table 2; read-out: Toxicity Index, LC50 WEHI-3 / LC50 C. albicans
Experimental: (§2) WEHl3 = Mouse myelomonocyte
(§3) Doses inhibiting growth in 50% were estimated by plotting concentration o
(§4) a logarithmic scale and percent of growth inhibition for 24 hours exposur
(§5) on a probability scale.

WEHI-3 = test: as above; type: cell-based, Mouse; details: Mus musculus, WEHI-3; 24 hours exposure; Table 1; read-out: Concentration causing 50% growth inhibition
Experimental: as §2, §3, §4, §5

C. albicans [5] = test: LC50 (24 hrs.), doses required to inhibit growth in 50%, different method; type: cell-based, Candida albicans
Description: Doses Required to Inhibit Growth of C. albicans
in 50% During 24 hrs. (ng/ml)

Aspergillus fumigatus = test: Sensitivity of Aspergillus fumigatus, agar diffusion method; type: cell-based; details: disc diameter 6 mm, read-out: Zone of Growth Inhibition
Description: Results were obtained by agar diffusion method. Disc diameter - 6 mm. -* = no zone over disc diameter.

C. albicans [6] = test: Doses of ThD required to inhibit different numbers of C. albicans cells; type: cell-based; details: Candida albicans, read-out: LC50 (the source's name)
P. aeruginosa = test: Growth inhibition of P. aeruginosa during 24 hours exposure; type: cell-based, Pseudomonas aeruginosa; details: Pseudomonas aeruginosa, Table 3, read-out: Minimal concentration causing 100% growth inhibition
Klebsiella pneumoniae = test: Minimal inhibitory concentration, agar dilution method; type: cell-based; details: ATCC33495, 21 h, No. 7, ATCC 33495
Experimental: (§6) Results were obtained by agar dilution method. Mueller Hinton agar plates (pH - 7.4) with different doses of ThD were inoculated with 10^4 cfu/spot and incubated 21 hours at 34°. MIC is the lowest concentration with no growth.

Escherichia coli = test: as above; type: cell-based; details: ATCC25992, 21 h, read-out: Minimal Inhibitory Concentration
Experimental: as §6

Enterobacter sp. = test: as above; type: cell-based; details: 21 h, No. 26, strain 9E7
Experimental: as §6

Aspergillus [7] = test: as above; type: cell-based; details: 21 h
Experimental: as §6

Staphylococcus aureus = test: as above; type: cell-based; details: for MIC: Staphylococcus aureus, read-out: Minimal Inhibitory Concentration
Experimental: as §6

Pseudomonas aeruginosa = test: as above; type: cell-based
Experimental: as §6

Candida [8] = test: as above; type: cell-based; details: 21 h
Experimental: as §6

Cryptococcus neoformans = test: as above; type: cell-based; details: 21 h, No. 9, F548
Experimental: as §6

[9] = tested on: Enterococcus (gentamycin res.); test: as above; type: cell-based; details: 21 h, read-out: Minimal Inhibitory Concentration
Experimental: as §6

Listeria monocytogenes = test: as above; type: cell-based
Experimental: as §6

Enterococcus faecalis = test: as above; type: cell-based; details: 21 h
Experimental: as §6

Enterobacter aerogenes = test: as above; type: cell-based; details: Klebsiella aerogenes, ATCC35029, 21 h; No. 6, ATCC 35029
Experimental: as §6

Zanthomonas maltophilia = test: as above; type: cell-based; details: 21 h; No. 15, strain 3E6
Experimental: as §6

Candida pseudotropicalis = test: as above; type: cell-based; details: Kluyveromyces marxianus, 21 h; No. 10
Experimental: as §6

Acinetobacter = test: as above; type: cell-based
Experimental: as §6

Staphylococcus epidermis = test: as above; type: cell-based; details: ATCC29972, 21 h, No. 8, ATCC 29972
Experimental: as §6

Serratia marscenes = test: as above; type: cell-based; details: 21 h, No. 27, strain 3A3
Experimental: as §6

Klebsiella sp. = test: as above; type: cell-based; details: 21 h, No. 31
Experimental: as §6

Enterobacter cloacoe = test: as above; type: cell-based
Experimental: as §6

Candida [10] = test: Anti-Candida activity (summary); type: cell-based; details: Table 14;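 also: Letter grades where Y means active and y means less active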
C. albicans [11] = test: Decomposition of ThD in 95% ethanol in -20° C. (LC50 on C. albicans); type: cell-based; details: Candida albicans
Description: as §1

CC#CC1=CC=C(C#CC#CC2CO2)SS1 (stereo not shown) [Thiarubrine D]
MIC (C. albicans [1]): 0.0024 µg/mL (≈ 0.00982 µM) | IC50 (C. albicans [2]; 0 hrs., 37° C., read-out: LC50 24 Hrs.): 0.007 µg/mL (≈ 0.0286 µM) | IC50 (C. albicans [2]; 0 hrs., room temperature, read-out: LC50 24 Hrs.): 0.007 µg/mL (≈ 0.0286 µM) | IC50 (C. albicans [2]; 0.5 hrs., 37° C., read-out: LC50 24 Hrs.): 0.02 µg/mL (≈ 0.0819 µM) | IC50 (C. albicans [2]; 0.5 hrs., room temperature, read-out: LC50 24 Hrs.): 0.016 µg/mL (≈ 0.0655 µM) | IC50 (C. albicans [2]; 2 hrs., 37° C., read-out: LC50 24 Hrs.): 0.033 µg/mL (≈ 0.135 µM) | IC50 (C. albicans [2]; 2 hrs., room temperature, read-out: LC50 24 Hrs.): 0.022 µg/mL (≈ 0.09 µM) | IC50 (C. albicans [2]; 6 hrs., 37° C., read-out: LC50 24 Hrs.): 0.085 µg/mL (≈ 0.348 µM) | IC50 (C. albicans [2]; 6 hrs., room temperature, read-out: LC50 24 Hrs.): 0.042 µg/mL (≈ 0.172 µM) | IC50 (C. albicans [2]; 24 h, 37° C.): 0.21 µg/mL (≈ 0.859 µM) | IC50 (C. albicans [2]; 24 h, room temperature): 0.11 µg/mL (≈ 0.45 µM) | Anti-Aspergillus (Aspergillus [3]): Y | selectivity ratio at 24 h [4]: 83 | IC50 (WEHI-3): 0.05 µg/mL (≈ 0.205 µM) | Inhibition of growth of Candida albicans (C. albicans [5]): nanogram/ml range | IC50 (C. albicans [5]; Candida albicans, 24 hrs., Table 7, read-out: LC50 (24 hrs.), dose required to inhibit growth in 50%): 0.007 µg/mL (≈ 0.0286 µM) | zone of inhibition at 0.01 µg/disc (Aspergillus fumigatus; 10 ng/disc): 14 mm | zone of inhibition at 0.1 µg/disc (Aspergillus fumigatus; 100 ng/disc): 23 mm | zone of inhibition at 1 µg/disc (Aspergillus fumigatus; 1,000 ng/disc): 26 mm | zone of inhibition at 10 µg/disc (Aspergillus fumigatus; 10,000 ng/disc): 32 mm | IC50 (C. albicans [6]; cell density 10^4 /ml): 0.007 µg/mL (≈ 0.0286 µM) | IC50 (C. albicans [6]; cell density 10^5 /ml): 0.016 µg/mL (≈ 0.0655 µM) | IC50 (C. albicans [6]; cell density 10^6 /ml): 0.042 µg/mL (≈ 0.172 µM) | MIC (P. aeruginosa): 0.625 µg/mL (≈ 2.56 µM) | MIC (Klebsiella pneumoniae): 10 µg/mL (≈ 40.9 µM) | MIC (Escherichia coli): 1 µg/mL (≈ 4.09 µM) | MIC (Enterobacter sp.): 10 µg/mL (≈ 40.9 µM) | MIC (Aspergillus [7]; No. 21, strain 05): 0.032 µg/mL (≈ 0.131 µM) | MIC (Aspergillus [7]; No. 34, strain F604): 0.064 µg/mL (≈ 0.262 µM) | Minimal Inhibitory Concentration (Staphylococcus aureus; No. 16, strain B4287 (metacylliu res.)): 10,000 ng/ml | MIC (Staphylococcus aureus; 21 h): 10 µg/mL (≈ 40.9 µM) | MIC (Staphylococcus aureus; ATCC25923, 21 h, No. 1, ATCC 25923): 10 µg/mL (≈ 40.9 µM) | MIC (Staphylococcus aureus; ATCC29213, 21 h, No. 5, ATCC 29213): 10 µg/mL (≈ 40.9 µM) | MIC (Pseudomonas aeruginosa; 21 h, No. 12, strain 141): > 10 µg/mL | MIC (Pseudomonas aeruginosa; 21 h, No. 13, strain 205): > 10 µg/mL | MIC (Pseudomonas aeruginosa; 21 h, No. 14, strain 3E5): 10 µg/mL (≈ 40.9 µM) | MIC (Pseudomonas aeruginosa; ATCC27853, 21 h, No. 4, ATCC 27853): 10 µg/mL (≈ 40.9 µM) | MIC (Candida [8]; No. 22, strain 01): 0.016 µg/mL (≈ 0.0655 µM) | MIC (Candida [8]; No. 23, strain 02): 0.016 µg/mL (≈ 0.0655 µM) | MIC (Candida [8]; No. 24, strain 03): 0.064 µg/mL (≈ 0.262 µM) | MIC (Candida [8]; No. 25, strain R4197): 0.016 µg/mL (≈ 0.0655 µM) | MIC (Candida [8]; No. 32, strain F617): 0.008 µg/mL (≈ 0.0327 µM) | MIC (Cryptococcus neoformans): 0.064 µg/mL (≈ 0.262 µM) | MIC [9]: 0.01 µg/mL (≈ 0.0409 µM) | MIC (Listeria monocytogenes; Listeria monocytogenes, 21 h, No. 28, strain 106): 10 µg/mL (≈ 40.9 µM) | Minimal Inhibitory Concentration (Listeria monocytogenes; No. 29, strain 301): 10,000 ng/ml | MIC (Enterococcus faecalis; No. 30, strain 1A3): 10 µg/mL (≈ 40.9 µM) | MIC (Enterococcus faecalis; No. 35, strain 207): 1 µg/mL (≈ 4.09 µM) | MIC (Enterobacter aerogenes): 10 µg/mL (≈ 40.9 µM) | MIC (Zanthomonas maltophilia): 10 µg/mL (≈ 40.9 µM) | MIC (Candida pseudotropicalis): 10 µg/mL (≈ 40.9 µM) | MIC (Acinetobacter; Acinetobacter, 21 h, No. 17, strain C42): 1 µg/mL (≈ 4.09 µM) | Minimal Inhibitory Concentration (Acinetobacter; No. 18, strain 6C10): 1,000 ng/ml | MIC (Staphylococcus epidermis): 10 µg/mL (≈ 40.9 µM) | MIC (Serratia marscenes): 10 µg/mL (≈ 40.9 µM) | MIC (Klebsiella sp.): 1 µg/mL (≈ 4.09 µM) | MIC (Enterobacter cloacoe; Enterobacter, 21 h, No. 19, strain 1A5): 1 µg/mL (≈ 4.09 µM) | Minimal Inhibitory Concentration (Enterobacter cloacoe; No. 20, strain 9E5): 1,000 ng/ml | Anti-Candida (Candida [10]): Y | IC50 (C. albicans [11]; 0 h, 0 days): 0.007 µg/mL (≈ 0.0286 µM) | IC50 (C. albicans [11]; 504 h, 21 days): 0.017 µg/mL (≈ 0.0696 µM)

From patent US5202348A, “Thiarubrine antifungal agents” (The University of British Columbia, priority 1990, dated 1993)
